Reference: US8772499B2, “TRPV3 modulators” (AbbVie Inc., priority 2011, dated 2014)
Read-outs that look alike come from different tables or passages of the source.

Legend:
[1] = In vitro human microsomal stability assay; format: in vitro ADME; settings: human, microsomes, 0.5 h, 0.5 μM, pH 7.4
Summary of the method: (§1)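 Incubations ran at 37° C. in microsomal preparations of rat (Sprague-Dawley) or human liver, with NADPH present, including at time zero.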

[2] = target: T1, human TRPV3 (Homo sapiens, UniProt Q8NET8); assay: In vitro antagonism of recombinant human TRPV3 activation (FLIPR Tetra calcium assay); format: cell-based; settings: HEK293 cells stably expressing human TRPV3, agonist 2-APB at 80 μM
T1 construct: expressed in transfected cells
T1 sequence (Q8NET8 1-790): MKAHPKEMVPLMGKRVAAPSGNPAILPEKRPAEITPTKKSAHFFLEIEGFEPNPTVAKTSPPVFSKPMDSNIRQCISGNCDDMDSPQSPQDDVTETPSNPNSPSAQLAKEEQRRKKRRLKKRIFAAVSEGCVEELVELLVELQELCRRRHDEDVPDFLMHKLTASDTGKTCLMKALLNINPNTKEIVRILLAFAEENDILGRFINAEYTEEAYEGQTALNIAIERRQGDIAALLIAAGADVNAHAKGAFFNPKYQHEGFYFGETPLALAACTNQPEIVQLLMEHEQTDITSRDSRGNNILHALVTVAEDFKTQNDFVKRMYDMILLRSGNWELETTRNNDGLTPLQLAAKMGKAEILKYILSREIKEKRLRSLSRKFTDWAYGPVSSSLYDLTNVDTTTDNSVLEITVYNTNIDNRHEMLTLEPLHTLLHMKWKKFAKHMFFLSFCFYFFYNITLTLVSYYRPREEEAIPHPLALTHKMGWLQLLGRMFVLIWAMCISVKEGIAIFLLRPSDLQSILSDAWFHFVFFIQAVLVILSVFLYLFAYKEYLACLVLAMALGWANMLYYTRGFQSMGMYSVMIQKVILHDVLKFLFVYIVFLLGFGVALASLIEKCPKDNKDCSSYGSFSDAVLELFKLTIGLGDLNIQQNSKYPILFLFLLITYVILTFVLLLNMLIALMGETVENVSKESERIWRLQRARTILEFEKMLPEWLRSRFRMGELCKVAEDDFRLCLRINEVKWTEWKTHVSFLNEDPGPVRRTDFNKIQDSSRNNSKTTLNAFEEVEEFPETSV
Summary of the method: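 Calcium flux read over a 10 min run: compound added at 10 s to Calcium-4-loaded human TRPV3-HEK293 cells, agonist 2-APB (80 μM, its EC80) after 3 min. IC50 derived from peak-minus-baseline signal as percentage of uninhibited 2-APB response, typically averaged over at least two runs.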

[3] = In vitro rat microsomal stability assay; format: in vitro ADME, rat (Sprague-Dawley); settings: Sprague-Dawley, rat, microsomes, 0.5 h, 0.5 μM, pH 7.4
Summary of the method: as §1

[4] = actual measured value shown parenthetically, in most cases average of at least two runs, read-out: IC50

Row | Structure (SMILES) | HUMAN MICROSOMAL STABILITY (% REMAINING AFTER 30 MINUTES) [1] [%] | IC50 [2, 4] [µM] | RAT MICROSOMAL STABILITY (% REMAINING AFTER 30 MINUTES) [3] [%] | IC50 ([2]; reported range, read-out: IC50 (range class)) [µM]
1 | NC1CCCCC1C(O)C1(c2cccc(C(F)(F)F)c2)CCC1 (stereo not shown) [Example 212, (2-aminocyclohexyl) {1-[3-(trifluoromethyl)phenyl]cyclobutyl}methanol] | >85 | 2.87 | 3.9 | –
2 | NC1CCC1C(O)C1(c2cccc(C(F)(F)F)c2)CCC1 (stereo not shown) [Example 213, (2-aminocyclobutyl) {1-[3-(trifluoromethyl)phenyl]cyclobutyl}methanol] | >85 | 3.24 | 72 | –
3 | N[C@@H]1CCC[C@@H]1[C@@H](O)C1(c2ccc(Cl)c(Cl)c2)CCC1 [Example 216, (R)-[(1S,2R)-2-aminocyclopentyl][1-(3,4-dichlorophenyl)cyclobutyl]-methanol] | >85 | 2.26 | 41 | –
4 | N[C@H]1CCC[C@H]1[C@H](O)C1(c2ccc(Cl)c(Cl)c2)CCC1 [Example 217, (S)-[(1R,2S)-2-aminocyclopentyl][1-(3,4-dichlorophenyl)cyclobutyl]-methanol] | 73 | 3.99 | 68 | –
5 | N[C@@H]1CCC[C@H]1[C@@H](O)C1(c2ccc(Cl)c(Cl)c2)CCC1 [Example 220, (R)-[(1R,2R)-2-aminocyclopentyl][1-(3,4-dichlorophenyl)cyclobutyl]-methanol] | >85 | 0.65 | 67 | –
6 | N[C@@H]1CCC[C@@H]1[C@@H](O)C1(c2ccc(OC(F)(F)F)cc2)CCC1 [Example 221, (R)-[(1S,2R)-2-aminocyclopentyl]{1-[4-(trifluoromethoxy)phenyl]-cyclobutyl}methanol] | 83 | 1.8 | 56 | –
7 | N[C@H]1CCC[C@@H]1[C@H](O)C1(c2ccc(OC(F)(F)F)cc2)CCC1 [Example 222, (S)-[(1S,2S)-2-aminocyclopentyl]{1-[4-(trifluoromethoxy)phenyl]-cyclobutyl}methanol] | >85 | 2.35 | 59 | –
8 | N[C@@H]1CCC[C@H]1[C@@H](O)C1(c2ccc(OC(F)(F)F)cc2)CCC1 [Example 223, (R)-[(1R,2R)-2-aminocyclopentyl]{1-[4-(trifluoromethoxy)phenyl]-cyclobutyl}methanol] | >85 | 2.07 | 65 | –
9 | N[C@@H]1CCC[C@H]1[C@@H](O)C1(c2ccc(Cl)cc2)CCC1 [Example 224, (R)-[(1R,2R)-2-aminocyclopentyl][1-(4-chlorophenyl)cyclobutyl]methanol] | >85 | 4.84 | 70 | –
10 | N[C@H]1CCC[C@@H]1[C@H](O)C1(c2ccc(Cl)cc2)CCC1 [Example 225, (S)-[(1S,2S)-2-aminocyclopentyl][1-(4-chlorophenyl)cyclobutyl]methanol] | >85 | 2.82 | 34 | –
11 | N[C@H]1CCC[C@H]1[C@@H](O)C1(c2ccccc2F)CCC1 [Example 226, (R)-[(1R,2S)-2-aminocyclopentyl][1-(2-fluorophenyl)cyclobutyl]methanol] | >85 | 0.79 | <0.01 | –
12 | N[C@@H]1CCC[C@H]1[C@@H](O)C1(c2cccc(C(F)(F)F)c2)CCC1 [Example 227, (R)-[(1R,2R)-2-aminocyclopentyl]{1-[3-(trifluoromethyl)phenyl]-cyclobutyl}methanol] | >85 | 0.5 | 42 | –
13 | N[C@H]1CCC[C@H]1[C@@H](O)C1(c2ccc(OC(F)(F)F)cc2)CCC1 [Example 229, (R)-[(1R,2S)-2-aminocyclopentyl]{1-[4-(trifluoromethoxy)phenyl]-cyclobutyl}methanol] | >85 | 4.58 | 80 | –
14 | O/N=C(\c1ccccn1)C1(c2ccc(Cl)c(Cl)c2)CCC1 [Example 230, (Z)-[1-(3,4-dichlorophenyl)cyclobutyl](pyridin-2-yl)methanone oxime] | 33 | > 10 | 30 | –
15 | O[C@H](c1ccccn1)C1(c2ccc(Cl)c(Cl)c2)CC1 [Example 231, (S)-[1-(3,4-dichlorophenyl)cyclopropyl](pyridin-2-yl)methanol] | 4.0 | 0.54 | 17 | –
16 | OC(c1ccccn1)C1(c2cccc(C(F)(F)F)n2)CCC1 (stereo not shown) [Example 234, pyridin-2-yl{1-[6-(trifluoromethyl)pyridin-2-yl]cyclobutyl}methanol] | 19 | 5.36 | 23 | –
17 | OC(c1ccccn1)C1(c2cccc(OC(F)(F)F)c2)CC2(C1)OCCO2 (stereo not shown) [Example 235, pyridin-2-yl{2-[3-(trifluoromethoxy)phenyl]-5,8-dioxaspiro[3.4]oct-2-yl}-methanol] | 20 | 3.32 | <0.01 | –
18 | O=C1CC(c2cccc(OC(F)(F)F)c2)(C(O)c2ccccn2)C1 (stereo not shown) [Example 237, 3-[hydroxy(pyridin-2-yl)methyl]-3-[3-(trifluoromethoxy)phenyl]-cyclobutanone] | 51 | 3.66 | 50 | –
19 | O[C@H](c1ccccn1)C1(c2cccc(C(F)(F)F)n2)CCC1 [Example 238, (S)-pyridin-2-yl{1-[6-(trifluoromethyl)pyridin-2-yl]cyclobutyl}methanol] | 7.1 | 3.91 | 21 | –
20 | O[C@H](c1ccccn1)C1(c2ccnc(C(F)(F)F)c2)CCC1 [Example 240, (S)-pyridin-2-yl{1-[2-(trifluoromethyl)pyridin-4-yl]cyclobutyl}methanol] | 50 | 0.71 | 38 | –
21 | OC(c1ccccn1)C1(c2cccc(C(F)(F)F)c2)CC2(C1)OCCO2 (stereo not shown) [Example 242, pyridin-2-yl{2-[3-(trifluoromethyl)phenyl]-5,8-dioxaspiro[3.4]oct-2-yl}-methanol] | 45 | 5.1 | <0.01 | –
22 | O=C1CC(c2cccc(C(F)(F)F)c2)(C(O)c2ccccn2)C1 (stereo not shown) [Example 245, 3-[hydroxy(pyridin-2-yl)methyl]-3-[3-(trifluoromethyl)phenyl]-cyclobutanone] | 57 | 3.65 | 72 | –
23 | OC(c1ccccn1)C1(C2(O)CCOC2)CCC1 (stereo not shown) [Example 246, 3-{1-[hydroxy(pyridin-2-yl)methyl]cyclobutyl}tetrahydrofuran-3-ol] | 71 | > 20 | 59 | > 20
24 | ON=C1CC(c2ccc(OC(F)(F)F)cc2)([C@H](O)c2ccccn2)C1 (stereo partly drawn) [Example 248, (S)-{3-(hydroxyimino)-1-[4-(trifluoromethoxy)phenyl]cyclobutyl}(pyridin-2-yl)methanol] | 70 | 1.17 | 29 | –
25 | CON=C1CC(c2ccc(OC(F)(F)F)cc2)([C@H](O)c2ccccn2)C1 (stereo partly drawn) [Example 249, (S)-{3-(methoxyimino)-1-[4-(trifluoromethoxy)phenyl]cyclobutyl}(pyridin-2-yl)methanol] | 61 | 3.93 | 3.2 | –
